In the assay the test system is human form of induced nitric oxide synthase in DLD-1 cells. In words: Screen 3: nitrite accumulation (Griess) in cytokine-induced DLD-1 cells. In kind it is cell-based. The following applies: DLD-1 cells induced with gamma-IFN, TNF-alpha, IL-6, IL-1-beta, 5 hours with compound, read-out: IC50 (inhibition of nitrite accumulation). As to the method: The human colorectal carcinoma cell line, DLD-1 (obtained from the European Collection of Animal Cell Culture—cell line number 90102540) was routinely grown in RPMI 1640 supplemented with 10% (v/v) foetal bovine serum, and 2 mM L-glutamine, at 37° C. in 5% CO2. Nitric oxide synthase was induced in cells by addition of medium containing human recombinant gamma-IFN (1000 units/ml), TNF-alpha (200 U/ml), IL-6 (200 U/ml) and IL-1-beta (250 U/ml). After incubation for 18 hours at 37° C., the medium was removed and the cells washed with warm phosphate buffered saline. Cells were incubated for a further 5 hours at 37° C./5% CO2 in RPMI 1640 containing 100 μM L-arginine and 100 μM verapamil-HCl in the presence and absence of test compounds. Nitrite accumulation was determined by mixing an equal volume of culture media with Griess reagent (10 mg/ml sulphanilamide, 1 mg N-(1-naphthyl)ethylenediamine in 1 ml 2.5% (v/v) phosphoric acid). Inhibition in the presence of compounds was calculated relative to the nitrite levels produced by untreated cells. IC50 values were estimated from a semi-log plot of % inhibition versus concentration of compound.
(Nitrite, measured by Griess reagent, commonly stands in for NO production.)

This is an account of results in patent publication US20050203172A1, “Novel compounds” (priority 2002, published 2005).

Structures are written as SMILES. Where a name gives a salt, the structure may show the parent alone.

Broadly, the IC50 is the midpoint of a concentration-inhibition curve. On to `N#Cc1sccc1S[C@H](C[C@H](N)CO)c1ccccc1` [Example 1, 3-[[(1R,3S)-3-Amino-4-hydroxy-1-phenylbutyl]thio]-2-thiophenecarbonitrile oxalate], for which the IC50 is less than 100 µM.

As for `Cc1cc(S[C@H](C[C@H](N)CO)c2ccccc2)c(C#N)s1` [Example 2, 3-[[(1R,3S)-3-Amino-4-hydroxy-1-phenylbutyl]thio]-5-methyl-2-thiophenecarbonitrile Oxalate], the IC50 is less than 100 µM.
